Reference: patent publication US4966962A, “Reverse analogue of actinomycin D” (Trustees of Boston University, priority 1988, dated 1990)
Where two headings read alike, the source gives them in different places. *1 amine or outer side, *2 acyl side, *3 side chain or, on linkers, in order; H or OH if unused. Where a SMILES comes first, the peptide text is derived from it. Bridges are numbered along the chain shown (N, C = ends). Roman numbers before positions name the chains, in order. [ ]: non-standard residue; d: D form. Actinocin(9to1) = Cc1c2oc3c(C)ccc(C(=O)[*:1])c3nc-2c(C(=O)[*:2])c(N)c1=O; NMeV = CN[C@H](C(=O)O)C(C)C; Sar = CNCC(=O)O

What was measured:
rat liver microsomes [1] = test: Stimulation of NADPH oxidation by rat hepatic microsomal incubations; assay type: biochemical; settings: for percentage stimulation of NADPH oxidation: (drug-stimulated rate - basal rate)/basal rate × 100; for NADPH oxidation: measured at 340 nm, average ± standard error of triplicate
Source text: (§1) It has been reported that the quinone imino chromophore of actinomycin can be subjected to enzyme-catalyzed single-electron reduction to give free-radical species that generate superoxides by reacting with molecular oxygen. The process needs a reductive cofactor NADPH, which is oxidized to NADP^+ during the process, giving a change in the absorbance at 340 nm that can be measured spectrophotometerically. Alternatively, the superoxides generated during the process may be allowed to react with epinephrine to produce adrenochrome, a chromophore with strong absorbance at 480 nm that can be measured spectrophotmetrically.
(§2) The superoxide formations were studied via NADPH oxidation catalyzed by AMD analogues in the presence of rat liver microsomes. […] The process of adrenochrome formation is inhibited by superoxide dismutase, confirming that superoxide is indeed generated in these systems.
(§3) ^a The percentage stimulation = (drugstimulated rate basal rate)/basa
(§4) rate × 100 and is shown in parentheses. NADPH oxidation was measure
(§5) at 340 nm and adrenochrome formation was measured at 489 nm; the values
(§6) are average ± standard errors of triplicate analyses. ^b SOD,

[2] = system: human colon carcinoma HT-29; test: Inhibition of nucleic acid synthesis in HT-29 cells in vitro; assay type: cell-based; settings: 2-h exposure
Source text: In addition to the P388 cells, this inhibitory activity in human carcinoma HT-29 grown in tissue culture has been also examined. The values of the drug concentration producing 50% inhibition of the incorporation of [^3 H]-thymidine and [^14 C] uridine into nucleic acid macromolecules are presented in Table V. These values are taken as estimates of the inhibition of DNA and RNA synthesis. […] Furthermore, the inhibitory activities of these analogues are three-to fivefold higher than AMD; the order of potency of the analogues for their inhibition of DNA synthesis is:
DNA and RNA synthesis in P388 and HT-29 cells lines was monitored in the presence of drugs, and the rates of inhibition of their synthesis were estimated from the amounts of [2-^14 C]-uridine and [^3 H]-thymidine into RNA and DNA, respectively, according to the methods described previously.
In brief, for HT-29 colon carcinoma monolayer cells, 10^4 cells in each of five wells per concentration, were incubated with radiolabelec nucleosides ([…] each) for the last hour of a 2-h drug exposure, following which the cells were aspirated and washed with buffered medium. Cells were trypsinized and counted in the Coulter counter. The cell suspensions were then precipitated onto glass fiber filter discs (Whatman 934H), with 10% trichloracetic acid and twice with 95% ethanol and dried, and the incorporation of radionucleotides was estimated.
In addition, to investigate the cross contamination of radioactivity from [2^14 C] uridine, the cells were lysed with ice-cold 1% Triton X for 2.5 min. Macromolecules were precipitated with the addition of 10% perchloric acid (5% in the medium) and centrifuged; the pellet in 1% NaCl was treated with an equal volume of phenol reagent, the emulsion was centrifuged at 10000 g for 30 min at 4° C., and the separated layer was adjusted to 1% NaCl and treated with an equal volume of 2-ethoxyethanol to precipitate the nucleic acids. The precipitate was washed with 75% ethanol and dissolved in an aqueous solution containing 2% sodium acetate and 1.5% NaCl. An aliquot was used for estimation of the total radionucleotide incorporation. Ribonuclease, previously heated to 80° C. for 10 min to destroy deoxyribonuclease activity, was added, and the mixture was incubated at 37° C. for 30 min.
^a Human colon carcinoma in culture, IC50, drug concentration
producing a 50% inhibition of incorporation of precursor [^3 H]
thymidine into DNA and [^14 C] uridine into RNA in the cell lines,
isolated as acid preciptable materials. Data are average of replicate

[3] = system: CX-1 human colon adenocarcinoma; test: Chemotherapy of human colon CX-1 tumor heterotransplanted in nude mice; assay type: in vivo, human tumor in athymic mice; settings: for % T/C, optimal: TST 15, observed day 22; for response of CX-1 tumor to treatment (in words): three iv treatments weekly from 15th day of transplant, at the doses tested
Procedure: Tables XI and XII show the effectiveness of SAD (2) and RAD (3b and 3c) against CX-1 human colon adenocarcinoma heterotransplanted into athymic mice, with three iv treatments with drugs on a weekly schedule starting on the 15th day of tumor transplant. AMD and the analogues were tested at doses of 45 and 60 ug/kg.
^a -, % T/C high than 50%; ±, % T/C close to 50%; +, % T/C from 50
to 35%; ++, % T/C from 35% to 20%; +++, % T/C lower than 20%; ++++,
regression of the tumor to a volume lower than 10% of the volume at the
start of treatment. ^b Statistically significant as evaluated by the
^a Intravenous treatment, once a week for three weeks; eight mice per
group. ^b TST; number of days between tumor transplant and starting o
treatment. ^c Numbers in parentheses; day of observation after the […]

rat liver microsomes [4] = test: Stimulation of adrenochrome formation (superoxide) by rat hepatic microsomal incubations; assay type: biochemical; settings: for adrenochrome formation in presence of SOD: with SOD (superoxide dismutase) 5 ug/mL; for percentage stimulation of adrenochrome formation / adrenochrome formation: without SOD; for percentage stimulation of adrenochrome formation: (drug-stimulated rate - basal rate)/basal rate × 100; for adrenochrome formation: average ± standard error of triplicate
Source text: as §1, §2, §3, §4, §5, §6

rat liver microsomes [5] = test: Metabolism in rat liver microsomes (M); assay type: in vitro ADME; settings: 6 h, NADPH-generating system
Procedure: In this respect, actinomycin is only about 30% as efficient as its synthetic analogues, RAD III (3c) and SAD (2) (Table II). Metabolic Studies, Metabolism in the Presence of Tumor Cell Homogenates and Rat Liver Microsomes. The cell homogenates (P388 cells were sonicated and were incubated at 37° C. with analogues for 16 h. Rat microsomes were harvested from phenobarbital-induced rats by standard procedure. Incubations were carried out for 6 h in the presence of a NADPH-generating system, i.e., glucose-6-phosphate dehydrogenase and glucose 6-phosphate. The metabolites and their water-soluble conjugates were isolated and identified with the use of tritiated analogues.
It was observed that the RAD analogues are metabolized to SAD (2) with the loss of oxazole ring. […] In tumor cells, a larger fraction of SAD (2) (30-50%) remains unmetabolized. SAD is found to form glucuronide and sulfate conjugates only in tumor cells. […] Isolation of SAD from RAD analogues is a very important step, because SAD is found to be a potent and effective antitumor agent in several murine tumor systems (Tables V-XII).

[6] = system: human colon carcinoma HT-29 cell line; test: Cell viability by soft agar cloning; assay type: cell-based; settings: 2 h treatment at 37° C., from plot of concentration vs colony formation
Procedure: Furthermore, the activity of the analogues against a human colon carcinoma HT-29 cell line in culture was evaluated. After the cells were treated for 2 h with 0.01-10.0 uM of the drugs at 37° C., the cells were washed with ice-cold PBS (phosphate buffered saline), and the cell viability was assessed by soft agar cloning. Cells viability was expressed as the percentage of colonies from the drug-treated cells relative to control cells after correcting for the cloning efficiency, which ranged from 60% to 80%.

[7] = system: P388/ADR (adriamycin resistant) leukemia; test: Antitumor activity in vivo, P388/ADR leukemia; design: species or system mice; settings: at optimal dose, ip days 1, 5, 9
Procedure: The analogues were also tested against P388/ADR murine leukemia following the standard protocol (Table VI).
ILS = percent increase in life span.

[8] = [3H]thymidine incorporation, read-out: IC50, DNA synth
[9] = [14C]uridine incorporation, read-out: IC50, RNA synth
[10] = dose 45 μg/kg iv once a week for three weeks
[11] = dose 60 μg/kg iv once a week for three weeks

Cc1c2oc3c(C)ccc(C(=O)N[C@@H]4C(=O)N[C@H](C(C)C)C(=O)N5CCC[C@H]5C(=O)N(C)CC(=O)N(C)[C@@H](C(C)C)C(=O)O[C@@H]4C)c3nc-2c(C(=O)N[C@@H]2C(=O)N[C@H](C(C)C)C(=O)N3CCC[C@H]3C(=O)N(C)CC(=O)N(C)[C@@H](C(C)C)C(=O)O[C@@H]2C)c(N)c1=O [AMD (1), Actinomycin D] (I: T[dV]P[Sar][NMeV] / II: T[dV]P[Sar][NMeV]; ester I:1-I:C, II:1-II:C; linker I:N-II:N via Actinocin(9to1))
percentage stimulation of NADPH oxidation (rat liver microsomes [1]): 9.9% | NADPH oxidation (rat liver microsomes [1]): 10.01 ± 0.90 nmol/min per mg of protein | IC50 [2, 8]: 900 ± 80 nM | IC50 [2, 9]: 100 ± 11 nM | % T/C, optimal [3, 10]: 34% | % T/C, optimal [3, 11]: 36% | response of CX-1 tumor to treatment (in words) [3]: ineffective | adrenochrome formation in presence of SOD (rat liver microsomes [4]): inhibited | percentage stimulation of adrenochrome formation (rat liver microsomes [4]): 8.5% | adrenochrome formation (rat liver microsomes [4]): 2.29 ± 0.33 nmol/min per mg of protein | percent unconverted drug (rat liver microsomes [5]): 100%

Cc1c2oc3c(C)c4oc(-c5ccccc5)nc4c(C(=O)N[C@@H]4C(=O)N[C@H](C(C)C)C(=O)N5CCC[C@H]5C(=O)N(C)CC(=O)N(C)[C@@H](C(C)C)C(=O)O[C@@H]4C)c3nc-2c(C(=O)N[C@@H]2C(=O)N[C@H](C(C)C)C(=O)N3CCC[C@H]3C(=O)N(C)CC(=O)N(C)[C@@H](C(C)C)C(=O)O[C@@H]2C)c(N)c1=O [RAD II (3b)]
percentage stimulation of NADPH oxidation (rat liver microsomes [1]): 610% | NADPH oxidation (rat liver microsomes [1]): 65.0 ± 5.95 nmol/min per mg of protein | LD90, drug concentration producing 90% reduction in cell viability [6]: 0.2 µM | IC50 [2, 8]: 580 ± 55 nM | IC50 [2, 9]: 68 ± 10 nM | % T/C, optimal [3, 10]: 48% | % T/C, optimal [3, 11]: 24% | response of CX-1 tumor to treatment (in words) [3]: marginal but positive activity | adrenochrome formation in presence of SOD (rat liver microsomes [4]): inhibited | percentage stimulation of adrenochrome formation (rat liver microsomes [4]): 800% | adrenochrome formation (rat liver microsomes [4]): 18.8 ± 1.9 nmol/min per mg of protein | tumor free survivors/total on day 60 [7]: 1/8

Cc1c2oc3c(C)c4oc(CC(=O)NCCCCN)nc4c(C(=O)N[C@@H]4C(=O)N[C@H](C(C)C)C(=O)N5CCC[C@H]5C(=O)N(C)CC(=O)N(C)[C@@H](C(C)C)C(=O)O[C@@H]4C)c3nc-2c(C(=O)N[C@@H]2C(=O)N[C@H](C(C)C)C(=O)N3CCC[C@H]3C(=O)N(C)CC(=O)N(C)[C@@H](C(C)C)C(=O)O[C@@H]2C)c(N)c1=O [RAD III (3c)]
percentage stimulation of NADPH oxidation (rat liver microsomes [1]): 812% | NADPH oxidation (rat liver microsomes [1]): 87.1 ± 7.1 nmol/min per mg of protein | LD90, drug concentration producing 90% reduction in cell viability [6]: 5.0 µM | IC50 [2, 8]: 365 ± 45 nM | IC50 [2, 9]: 45 ± 8 nM | % T/C, optimal [3, 10]: 5% | % T/C, optimal [3, 11]: 3% | response of CX-1 tumor to treatment (in words) [3]: responded remarkably well to the treatment of RAD III at doses of 45 and 60 ug/kg | adrenochrome formation in presence of SOD (rat liver microsomes [4]): inhibited | percentage stimulation of adrenochrome formation (rat liver microsomes [4]): 870% | adrenochrome formation (rat liver microsomes [4]): 22.1 ± 2.2 nmol/min per mg of protein | tumor free survivors/total on day 60 [7]: 2/8 | percent isolated: tissue bound (rat liver microsomes [5]): 5.0 ± 0.5% | percent isolated: unidentified metabolite (rat liver microsomes [5]): 8.0 ± 1.0% | percent metabolite isolated: SAD (rat liver microsomes [5]): 65.0 ± 5.5% | percent metabolite isolated: SAD-glucuronide and/or sulfate (rat liver microsomes [5]): nil | percent metabolite isolated: protein conjugates (rat liver microsomes [5]): 10.0 ± 10% | percent unconverted drug (rat liver microsomes [5]): 10.0 ± 1.0%

Cc1c2oc3c(C)c(O)c(N)c(C(=O)N[C@@H]4C(=O)N[C@H](C(C)C)C(=O)N5CCC[C@H]5C(=O)N(C)CC(=O)N(C)[C@@H](C(C)C)C(=O)O[C@@H]4C)c3nc-2c(C(=O)N[C@@H]2C(=O)N[C@H](C(C)C)C(=O)N3CCC[C@H]3C(=O)N(C)CC(=O)N(C)[C@@H](C(C)C)C(=O)O[C@@H]2C)c(N)c1=O [SAD (2)]
percentage stimulation of NADPH oxidation (rat liver microsomes [1]): 606% | NADPH oxidation (rat liver microsomes [1]): 64.3 ± 2.11 nmol/min per mg of protein | LD90, drug concentration producing 90% reduction in cell viability [6]: 0.1 µM | IC50 [2, 8]: 70 ± 11 nM | IC50 [2, 9]: 55 ± 6 nM | response of CX-1 tumor to treatment (in words) [3]: responded fairly well to SAD treatment but at 60 ug/kg only | adrenochrome formation in presence of SOD (rat liver microsomes [4]): inhibited | percentage stimulation of adrenochrome formation (rat liver microsomes [4]): 815% | adrenochrome formation (rat liver microsomes [4]): 19.3 ± 1.04 nmol/min per mg of protein | tumor free survivors/total on day 60 [7]: 3/8 | percent isolated: tissue bound (rat liver microsomes [5]): 15.0 ± 3.0% | percent isolated: unidentified metabolite (rat liver microsomes [5]): 15.0 ± 4.0% | percent metabolite isolated: SAD-glucuronide and/or sulfate (rat liver microsomes [5]): nil | percent metabolite isolated: protein conjugates (rat liver microsomes [5]): 20.0 ± 5.0% | percent unconverted drug (rat liver microsomes [5]): 50.0 ± 10.5%
